{"source": "paper PMC5124248", "about": "“Antitumor activity of TY-011 against gastric cancer by inhibiting Aurora A, Aurora B and VEGFR2 kinases” (Journal of Experimental & Clinical Cancer Research : CR, 2016)", "key": {"Aurora B": {"target": "T1, Aurora B (Homo sapiens, UniProt Q96GD4)", "T1 construct": "gift from Professor Jia Li, Shanghai Institute of Materia Medica/Chinese Academy of Sciences", "T1 sequence (Q96GD4 whole entry)": "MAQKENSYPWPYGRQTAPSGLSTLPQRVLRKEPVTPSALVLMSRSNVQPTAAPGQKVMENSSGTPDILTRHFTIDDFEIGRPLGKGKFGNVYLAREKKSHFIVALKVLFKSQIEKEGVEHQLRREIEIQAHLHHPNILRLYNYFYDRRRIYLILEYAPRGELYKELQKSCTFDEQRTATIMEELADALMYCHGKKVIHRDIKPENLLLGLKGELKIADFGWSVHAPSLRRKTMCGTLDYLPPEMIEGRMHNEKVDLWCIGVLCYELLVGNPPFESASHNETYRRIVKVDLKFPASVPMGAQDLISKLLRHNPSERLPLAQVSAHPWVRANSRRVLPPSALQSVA", "assay": "HTRF KinEASE-STK kinase assay, Aurora B", "type": "biochemical", "text": "The inhibition of TY-011 on activity of Aurora A, Aurora B and VEGFR2 was characterized by HTRF® KinEASE™-STK/TK kit according to the manufacturer’s instructions (Cisbio Assays, Codolet, France). Aurora A and Aurora B were gifts from Professor Jia Li, Shanghai Institute of Materia Medica/Chinese Academy of Sciences. VEGFR2 was purchased from Carna Biosciences (Kobe, Japan)."}, "[1]": {"tested_on": "MGC-803 xenograft tumor tissues", "assay": "TUNEL staining of xenograft tumor tissues", "type": "in vivo, BALB/c nu/nu mice", "settings": "9 mg/kg", "text": "(§1) Female BALB/c nu/nu mice (5–6 weeks, 16–18 g) were obtained from Sino-British SIPPR/BK Lab. Animal Ltd, Shanghai, China, with the certification number of 2008001638201. The animals were housed in specific pathogen-free (SPF) conditions at Key Laboratory of Brain Functional Genomics, Ministry of Education, and were acclimatized for a week prior to use. Human MGC-803 xenografts were established by subcutaneously inoculating 5 × 10^6 cells into nude mice. When the tumors reached a mean group size of 100 ~ 150 mm^3, the mice were randomized into control and treatment groups to receive treatment accordingly. TY-011 was orally administered at 3, 6 and 9 mg/kg once a day for 13 days. […] The tumor growth was recorded with the measurement of length (L) and width (W) by caliper every other day, and calculated as tumor volume (V) = L × W^2/2. Meanwhile, the body weights of mice were recorded. The tumor volume at day n was expressed as relative tumor volume (RTV) according to the following formula: RTV% = (TVn/TV0) ×100%, where TVn is the tumor volume at day n and TV0 is the tumor volume at day 0. The therapeutic effect of treatment was calculated with formula T/C (%) = mean RTV of the treated group/mean RTV of the control group × 100%. […] The tumor regression of individual mouse was defined as the tumor volume at the end was less than the tumor volume when treatment was initiated. […]"}, "SGC-7901 cells [2]": {"tested_on": "SGC-7901 cells", "assay": "Cell cycle analysis by flow cytometry, SGC-7901", "type": "cell-based, human", "method": "(§2) Cell cycle distribution was determined by flow cytometry measurement of DNA content after cells were incubated with RNase A (50 μg/ml) and propidium iodide (50 μg/ml). The cellular DNA content was measured on a flow cytometer (Guava EasyCyte 6HT-2 L, Merck Millipore, Billerica, MA, USA). The percentage of each population was analyzed using the InCyte software. At least 20 000 cells were analyzed for each data point."}, "[3]": {"tested_on": "CD31 (angiogenesis marker) in tumor tissues", "assay": "CD31 immunohistochemistry of xenograft tumor tissues", "type": "in vivo, BALB/c nu/nu mice", "settings": "TY-011 treated group vs control group", "text": "as §1"}, "MGC-803 cells [4]": {"tested_on": "MGC-803 cells", "assay": "Cell cycle analysis by flow cytometry, MGC-803", "type": "cell-based, human", "method": "as §2"}, "MGC-803 cells [5]": {"tested_on": "MGC-803 cells", "assay": "CCK-8 cell proliferation assay, MGC-803", "type": "cell-based", "settings": "Homo sapiens", "method": "(§3) During the logarithmic growth phase, each cell line was seeded in a 96-well tissue culture plate (Thermo Fisher Scientific, Waltham, MA, USA) at a predetermined density in complete medium, attached overnight and treated with compound for the indicated time. The medium was discarded and replaced with 10% CCK-8 (Dojindo, Kumamoto, Japan) in complete medium, then incubated the plates for another 2 h. The OD450 was measured with SpectraMax M5 (Molecular Devices, CA, USA). A background absorbance of ODblank was subtracted from all wells. The survival rate was determined with following formula: Survival rate (%) = ODcompound/ODDMSO × 100%. The IC50 values were calculated by concentration − response curve fitting using the four parameter method."}, "[6]": {"tested_on": "5 gastric cancer cell lines", "assay": "CCK-8 cell proliferation assay, panel of 5 gastric cancer cell lines", "type": "cell-based", "settings": "Homo sapiens; range over SNU-16, MKN-45, MGC-803, SGC-7901, AGS; read-out: IC50 values across 5 gastric cancer cell lines", "method": "as §3"}, "HUVECs": {"tested_on": "HUVECs", "assay": "HUVEC growth inhibition, 6 h, CCK-8", "type": "cell-based, human", "settings": "various concentrations", "method": "as §3"}, "SGC-7901 cells [7]": {"tested_on": "SGC-7901 cells", "assay": "CCK-8 cell proliferation assay, SGC-7901", "type": "cell-based", "settings": "Homo sapiens; SGC-7901, CCK-8, Fig. 3", "method": "as §3"}, "AGS cells": {"tested_on": "AGS cells", "assay": "CCK-8 cell proliferation assay, AGS", "type": "cell-based", "settings": "Homo sapiens, CCK-8, Fig. 3", "method": "as §3"}}, "note": "Where two headings read alike, the source gives them in different places."}
{"smiles": "CCc1cc2c(cn1)C(c1ccccc1Cl)=Nc1c(n[nH]c1C)N2", "note": "[TY-011, 9-(2-chloro-phenyl)-6-ephyl-1-methyl-2,4-dihydro-2,3,4,7,10-pentaaza-benzo[f]azulene]", "values": [{"measurement": "IC50", "setting": "Aurora B; Table S1, read-out: IC50 Aurora B", "value": 90, "unit": "nM"}, {"measurement": "IC50", "setting": "Aurora B; mean ± SD of three independent experiments, read-out: Aurora B IC50", "value": "93.9 ± 33.7", "unit": "nM"}, {"measurement": "apoptosis in tumor tissues (TUNEL)", "setting": "[1]", "value": "obvious increase in apoptosis"}, {"measurement": "G2/M phase cells", "setting": "SGC-7901 cells [2]; SGC-7901, 0.5 μM, 12 h (from 31.6%)", "value": 45.1, "unit": "%"}, {"measurement": "cells with >4 N DNA content", "setting": "SGC-7901 cells [2]; SGC-7901, 0.5 μM, 48 h", "value": 13.9, "unit": "%"}, {"measurement": "proportion of cells with >4 N DNA content", "setting": "SGC-7901 cells [2]; SGC-7901, 1 μM, 24 h (6.7% no treatment)", "value": 14.7, "unit": "%"}, {"measurement": "proportion of G2/M phase cells", "setting": "SGC-7901 cells [2]; SGC-7901, 1 μM, 24 h (34.0% no treatment)", "value": 78.6, "unit": "%"}, {"measurement": "CD31 staining in tumor tissues", "setting": "[3]", "value": "much less than control group"}, {"measurement": "G2/M phase cells", "setting": "MGC-803 cells [4]; MGC-803, 0.2 μM, 12 h (from 26.4%)", "value": 51.4, "unit": "%"}, {"measurement": "cells with >4 N DNA content", "setting": "MGC-803 cells [4]; MGC-803, 0.2 μM, 48 h", "value": 39.8, "unit": "%"}, {"measurement": "proportion of cells with >4 N DNA content", "setting": "MGC-803 cells [4]; MGC-803, 0.4 μM, 24 h (4.3% no treatment)", "value": 29.5, "unit": "%"}, {"measurement": "proportion of G2/M phase cells", "setting": "MGC-803 cells [4]; MGC-803, 0.4 μM, 24 h (28.8% no treatment)", "value": 65.0, "unit": "%"}, {"measurement": "IC50", "setting": "MGC-803 cells [5]; MGC-803, Table S1, proliferation, read-out: IC50 MGC-803", "value": 210, "unit": "nM"}, {"measurement": "IC50", "setting": "MGC-803 cells [5]; MGC-803, CCK-8, Fig. 3, read-out: IC50", "value": "190 ± 20", "unit": "nM"}, {"measurement": "IC50", "setting": "[6]", "value": "90 to 960", "unit": "nM"}, {"measurement": "HUVEC proliferation under tube formation treatment condition", "setting": "HUVECs", "value": "didn’t affect HUVEC proliferation"}, {"measurement": "IC50", "setting": "SGC-7901 cells [7]", "value": "570 ± 30", "unit": "nM"}, {"measurement": "IC50", "setting": "AGS cells", "value": "960 ± 100", "unit": "nM"}]}
